We go through 14 compounds from article PMC9137581, “Identification of a Novel Class of Anti-Melanogenic Compounds, (Z)-5-(Substituted benzylidene)-3-phenyl-2-thioxothiazolidin-4-one Derivatives, and Their Reactive Oxygen Species Scavenging Activities” (Antioxidants, 2022).

Assay [1] has as its target mushroom tyrosinase. To be noted: read-out: IC50 against mushroom tyrosinase, cited from earlier work.
Assay [2] relates to UVB-irradiated HRM2 hairless mice. More on the design: method as in PMID 30554432. To be noted: ref [31]; cited from earlier work.
For assay [3], the target named is T1, mushroom tyrosinase (Agaricus bisporus, UniProt C7FF04).
T1 construct: purchased Sigma-Aldrich
T1 sequence (C7FF04 1-392 limits assumed): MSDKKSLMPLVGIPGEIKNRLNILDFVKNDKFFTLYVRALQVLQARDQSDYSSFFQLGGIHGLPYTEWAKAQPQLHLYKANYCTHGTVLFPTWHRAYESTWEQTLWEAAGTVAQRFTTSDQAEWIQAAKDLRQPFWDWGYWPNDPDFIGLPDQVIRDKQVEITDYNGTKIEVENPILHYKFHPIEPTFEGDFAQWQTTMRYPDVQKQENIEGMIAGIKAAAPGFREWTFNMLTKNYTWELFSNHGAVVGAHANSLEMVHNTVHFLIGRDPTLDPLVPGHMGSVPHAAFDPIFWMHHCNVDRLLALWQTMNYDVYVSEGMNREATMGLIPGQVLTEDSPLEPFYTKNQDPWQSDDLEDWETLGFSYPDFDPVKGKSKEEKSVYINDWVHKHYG
Description: Mushroom tyrosinase inhibition assay (L-tyrosine substrate). Type of assay: biochemical. As to conditions: L-tyrosine substrate; means ± SEMs of triplicate determinations. The method, then: In order to examine the inhibitory effect of the (Z)-BPTT analogs on tyrosinase activity, commercially available mushroom tyrosinase (Sigma-Aldrich, St. Louis, MO, USA) was used. The mushroom tyrosinase-inhibitory activities of the analogs were determined as described previously with modification. Briefly, 20 µL (20 units) of an aqueous mushroom tyrosinase solution was added to each well of a 96-well microplate containing 170 µL of a substrate mixture consisting of 345 μM of L-tyrosine solution, 17.2 mM phosphate buffer (pH 6.5), and 10 µL of a (Z)-BPTT analog solution at different concentrations or 10 µL of a kojic acid solution (2, 10, or 50 μM). After incubating the assay mixtures for 30 min at 37 °C, the remaining tyrosinase activities were calculated from the amounts of dopachrome that were formed as determined by measuring their absorbance at 492 nm using a microplate reader (VersaMax™, Molecular Devices, Sunnyvale, CA, USA). The curves of the IC50 values that were derived from the X-axis of the inhibitor concentration versus the amount of product that was produced were determined by aligning the dose–response curve with the Y-axis. Inhibition experiments were performed in triplicate using three to six different concentrations of the (Z)-BPTT analogs or kojic acid. Log–linear curves and their equations were determined by using inhibition percentages at three to six analog concentrations. The individual IC50 values were determined by reading the concentrations on the Y-axis at 50% inhibition. The results are the means of three independent experiments.
The tyrosinase-inhibitory activities were screened against mushroom tyrosinase using L-tyrosine as a substrate, as previously described. Kojic acid, a representative tyrosinase inhibitor, was used as a positive control. […]. All 13 of the (Z)-BPTT analogs inhibited tyrosinase activity in a concentration-dependent manner. The IC50 values are shown in Table 2, along with the analog substitutions.

Assay [4] in a line: ABTS free radical scavenging activity assay. To be noted: 100 µM, 2 min in the dark. The protocol: ABTS free radical scavenging activity was used to evaluate the antioxidant activities of analogs 1–13, as previously described. […] This ABTS free radical solution was then diluted with absolute methanol to an absorbance of 0.70 ± 0.02 at 734 nm. Aliquots (10 µL) of the test samples (10% DMSO + 90% EtOH) were added at a final concentration of 100 µM to 90 µL of the diluted ABTS free radical solution and incubated for 2 min in the dark at room temperature. Absorbances were then measured at 734 nm using a VersaMax™ microplate reader (Molecular Devices, Sunnyvale, CA, USA). The ABTS free radical scavenging activities of the test analogs were calculated using the following formula:Scavenging activity (%) = (Ac − As) × 100/Ac where Ac is the optical density of the non-treated control and As is the optical density of the tested material.
The effects of analogs 1–13 on ABTS (2,2′-azino-bis(3-ethylbenzothiazoline-6-sulfonic acid)) free radical scavenging activity were investigated using trolox as a positive reference control. The concentrations of the analogs and trolox in the test samples were 100 µM. The free radical scavenging activities were assessed by measuring the optical densities at 734 nm after standing in the dark for 2 min. […] Analogs 7–10, with no hydroxyl groups on the β-phenyl ring, had weak ABTS and DPPH radical scavenging activities.

Assay [5] in a line: DPPH radical scavenging activity assay. As to conditions: 1 mM, 30 min in the dark. The method, then:
The effects of the (Z)-BPTT analogs 1–13 on DPPH radical scavenging activities were investigated as previously described with slight modification. Briefly, 180 μL of 0.2 mM DPPH in methanol was added to 96-well plates and then 20 μL of one of the (Z)-BPTT analogs 1–13 (10 mM in DMSO) or the positive control (10 mM L-ascorbic acid in distilled water) was added and mixed. The 96-well plates were incubated in the dark for 30 min and then the well optical densities were measured at 517 nm using a VersaMax™ microplate reader (Molecular Devices, Sunnyvale, CA, USA). All of these experiments were performed independently in triplicate. The DPPH radical scavenging activities of the analogs were calculated using the following formula:Scavenging activity (%) = (Ac − As) × 100/Ac where Ac is the optical density of the non-treated control and As is the optical density of the tested material.
The DPPH (2,2-diphenyl-1-picrylhydrazyl) radical scavenging abilities of the (Z)-BPTT analogs were investigated using L-ascorbic acid (vitamin C) as a positive control. The final concentrations of the analogs and of the positive control in the test samples and in the DPPH methanol solution were 1 and 0.18 mM, respectively. The scavenging activities of the analogs were assessed by measuring their optical densities at 517 nm after standing the samples in the dark for 30 min.
In general terms: The DPPH test is a chemical assay of radical scavenging.

In assay [6] the test system is B16F10 murine melanoma cells. More on the design: method as in PMID 34356311. To be noted: ref [32]; cited from earlier work.
The test system of assay [7] is B16F10 cells. Description: Melanin content assay in α-MSH plus IBMX-stimulated cells. It counts as cell-based, murine. As to conditions: 48 h, B16F10 cells. The method, then: Briefly, B16F10 cells were seeded at a density of 1 × 10^5 cells per well in 6-well plates and allowed to adhere to the well bases under the same conditions that were used for cell culturing. […] In order to determine the melanin contents, the B16F10 cells that were exposed to α-MSH and IBMX for 48 h were rinsed with PBS twice and incubated in 200 µL of 1 N NaOH solution containing 10% dimethyl sulfoxide (DMSO) for 1 h at 60 °C. The cell lysates were transferred to a 96-well plate and the absorbances at 405 nm were measured using a microplate reader (VersaMax™, Molecular Devices, Sunnyvale, CA, USA). These experiments were performed individually in triplicate. B16F10 cells were seeded in 6-well culture plates and pretreated with analogs 1, 3, and 6 at concentrations of 0, 5, 10, or 20 µM and with analog 2 at 0, 2.5, 5, or 10 µM for 1 h. α-Melanocyte-stimulating hormone (α-MSH; 1 µM) and 3-isobutyl-1-methylxanthine (IBMX; 200 µM) were added sequentially in order to enhance melanin production. After incubation for 48 h at 37 °C, the melanin contents were assessed by measuring the well optical densities at 405 nm using a microplate reader. Kojic acid (10 or 20 µM) was used as a positive control.

Structures are written as SMILES. Like-named read-outs stand apart in the source and are kept apart here. Some results are limits rather than exact numbers.

Regarding `COc1ccc(/C=C2\SC(=S)NC2=O)cc1O` [5-HMT, (Z)-5-(3-hydroxy-4-methoxybenzylidene)-2-thioxothiazolidin-4-one], the IC50 in assay [1] (ref [31]) was 18.1 ± 1 µM. Besides, in assay [2], the “skin effect in vivo” value is recorded as “skin-lighting effect”. In the case of `COc1cc(/C=C2\SC(=S)N(c3ccccc3)C2=O)ccc1O` [Analog 4, (Z)-5-(4-Hydroxy-3-methoxybenzylidene)-3-phenyl-2-thioxothiazolidin-4-one], in assay [3], the half-inhibitory concentration (IC50) is 80 ± 3.3 µM. Also, the “ABTS free radical scavenging activity” value in assay [4] is 61.5%. In addition, the “DPPH radical scavenging activity” value in assay [5] amounted to 78.7%.

As to `CCOc1cc(/C=C2\SC(=S)N(c3ccccc3)C2=O)ccc1O` [Analog 5, (Z)-5-(3-Ethoxy-4-hydroxybenzylidene)-3-phenyl-2-thioxothiazolidin-4-one], the IC50 in assay [3] is more than 200 µM. Further, in assay [4], the “ABTS free radical scavenging activity” value is listed as 51.2%. In addition, the “DPPH radical scavenging activity” value in assay [5] is listed as 77.5%. `COc1ccc(/C=C2\SC(=S)N(c3ccccc3)C2=O)cc1` [Analog 7, (Z)-5-(4-Methoxybenzylidene)-3-phenyl-2-thioxothiazolidin-4-one] gave a half-inhibitory concentration (IC50) in assay [3] of more than 200 µM. In assay [3], `COc1ccc(/C=C2\SC(=S)N(c3ccccc3)C2=O)cc1OC` [Analog 8, (Z)-5-(3,4-Dimethoxybenzylidene)-3-phenyl-2-thioxothiazolidin-4-one] gave an IC50 of 94.3 ± 7.7 µM. Compound `COc1ccc(/C=C2\SC(=S)N(c3ccccc3)C2=O)c(OC)c1` [Analog 9, (Z)-5-(2,4-Dimethoxybenzylidene)-3-phenyl-2-thioxothiazolidin-4-one] yielded an IC50 in assay [3] of 22.1 ± 4.23 µM.

Consider `COc1cc(/C=C2\SC(=S)N(c3ccccc3)C2=O)cc(OC)c1OC` [Analog 10, (Z)-3-Phenyl-2-thioxo-5-(3,4,5-trimethoxybenzylidene)thiazolidin-4-one], for which the 50% inhibitory concentration (IC50) in assay [3] is more than 200 µM. On to `COc1cc(/C=C2\SC(=S)N(c3ccccc3)C2=O)cc(OC)c1O` [Analog 11, (Z)-5-(4-Hydroxy-3,5-dimethoxybenzylidene)-3-phenyl-2-thioxothiazolidin-4-one], for which, in assay [3], the IC50 is more than 200 µM. For the same compound, the “ABTS free radical scavenging activity” value in assay [4] came to 57.2%. In assay [3], `O=C1/C(=C/c2ccc(O)c(Br)c2)SC(=S)N1c1ccccc1` [Analog 12, (Z)-5-(3-Bromo-4-hydroxybenzylidene)-3-phenyl-2-thioxothiazolidin-4-one] displayed a 50% inhibitory concentration (IC50) of 65.5 ± 9.4 µM. Besides, the “ABTS free radical scavenging activity (in words)” value in assay [4] was “did not influence”.

For the compound `O=C1/C(=C/c2cc(Br)c(O)c(Br)c2)SC(=S)N1c1ccccc1` [Analog 13, (Z)-5-(3,5-Dibromo-4-hydroxybenzylidene)-3-phenyl-2-thioxothiazolidin-4-one], the IC50 in assay [3] was 78.8 ± 8.63 µM. Besides, the “ABTS free radical scavenging activity (in words)” value in assay [4] is on record as “slightly decreased”. As for `O=c1/c(=C/c2ccc(O)cc2O)sc2nc3ccccc3n12` [Compound I, (Z)-2-(2,4-dihydroxybenzylidene)benzo[4,5]imidazo[2,1-b]thiazol-3(2H)-one], in assay [1] (ref [32]), the IC50 was 5 ± 0.38 µM. Moreover, the effects in cells result in assay [6] is “anti-tyrosinase and anti-melanogenic effects”. Regarding `O=C1O[C@H]([C@@H](O)CO)C(O)=C1O` [L-ascorbic acid, reference compound], the “DPPH radical scavenging activity” value in assay [5] worked out at 96.9%.

Take `O=c1cc(CO)occ1O` [kojic acid, reference compound]: the “reduction of α-MSH plus IBMX-induced increase in melanin content” value in assay [7] (10 µM) turned out to be 21.8%; in assay [7] (20 µM), 22.9%.

Take `Cc1c(C)c2c(c(C)c1O)CCC(C)(C(=O)O)O2` (stereo not drawn) [trolox, reference compound]: the “ABTS free radical scavenging activity” value in assay [4] worked out at 99.8%.

One may read the IC50 as the midpoint of a concentration-inhibition curve.
